Converted amounts (≈) assume the structure as drawn.
Tests used:
Format in all cases: cell-based
[1] = test system: spores of ATCC BBA1870 strain; experiment: Inhibition of germination of C. difficile spores (MIC), strain ATCC BBA1870; details: Clostridioides difficile, ATCCBBA1870STRAIN, 1 h; strain 1870; sodium taurocholate as germinant, BHIS medium, 37° C., OD580 for 60 min; read-out: MIC (minimum concentration that completely inhibits spore germination)
Protocol: (§1) According to a method disclosed in “The Journal of Infectious Diseases. 2013; 207: 1498-504”, spores of ATCC BBA1870, ATCC 43255 and ATCC 630 strains were obtained by culture and purification, and stored at 4° C.
(§2) Spore preparation: the C. difficile spores stored at 4° C. were heat-activated for 30 min at 65° C., centrifuged at 9,400 g for 2 min, and washed three times to remove any self-germinating spores.
(§3) Control drug: three cholic acid derivatives, a compound CamSA, a compound 20β (prepared by the method of “Journal of Medicinal Chemistry. 2017, 60 (8): 3451-3471”), and a compound 12a (prepared by the method of “Journal of Medicinal Chemistry. 2018, 61, 6759-6778”), were used as control drugs.
(§4) Compound preparation: the compound of the present disclosure, and the positive control drugs CamSA, 20β, and 12a were dissolved in DMSO, to prepare a stock solution with a concentration of 10 mM (prepared for immediate use).
(§5) The detection was conducted in a 96-well cell culture plate at a constant temperature of 37° C.; a final volume of each well of the 96-well plate was […] and a buffer was the BHIS medium; 150 μl of spores and drugs were added to the well in advance, and 50 μl of 4 mg/ml sodium taurocholate was added; OD580 was detected every 1 min immediately using a microplate reader, for continuously 60 min. A germination agent control group and a non-germination group were set up; after the detection, a final OD value of each well was compared with an initial value, and compared with the germination agent group to calculate a germination rate and an inhibition rate. A formula for the germination rate was:
(§6) Inhibition rate=100%−germination rate.

[2] = test system: spores of ATCC 43255 strain; experiment: Inhibition of germination of C. difficile spores (MIC), strain ATCC 43255; details: Clostridioides difficile, ATCC43255, 1 h; strain 43255; sodium taurocholate as germinant, BHIS medium, 37° C., OD580 for 60 min; read-out: MIC (minimum concentration that completely inhibits spore germination)
Protocol: as §1, §2, §3, §4, §5, §6

[3] = test system: spores of ATCC 630 strain; experiment: Inhibition of germination of C. difficile spores (MIC), strain ATCC 630; details: Clostridioides difficile, ATCC630, 1 h; strain 630; sodium taurocholate as germinant, BHIS medium, 37° C., OD580 for 60 min; read-out: MIC (minimum concentration that completely inhibits spore germination)
Protocol: as §1, §2, §3, §4, §5, §6

Structure (SMILES)	MIC [1]	MIC [2]	MIC [3]
CC(C)[C@@H](NC(=O)C[C@@H](C)[C@H]1CC[C@H]2[C@@H]3[C@H](O)C[C@@H]4C[C@@H](O)CC[C@]4(C)[C@H]3CC[C@]12C)c1ccc(Cl)s1 [Compound I-144]	4 µM (≈ 2.2 µg/mL)	2 µM (≈ 1.1 µg/mL)	2 µM (≈ 1.1 µg/mL)
CC(C)[C@H](NC(=O)C[C@@H](C)[C@H]1CC[C@H]2[C@@H]3[C@H](O)C[C@@H]4CC(=O)CC[C@]4(C)[C@H]3CC[C@]12C)c1ccc(Br)s1 [Compound I-99]	> 256 µM	256 µM (≈ 152 µg/mL)	256 µM (≈ 152 µg/mL)
CC(C)[C@H](NC(=O)C[C@@H](C)[C@H]1CC[C@H]2[C@@H]3[C@H](O)[C@H](O)[C@@H]4C[C@H](O)CC[C@]4(C)[C@H]3CC[C@]12C)c1ccc(Br)s1 [Compound I-121]	> 256 µM	> 256 µM	> 256 µM
CC(C)[C@@H](NC(=O)C[C@@H](C)[C@H]1CC[C@H]2[C@@H]3[C@H](N)C[C@@H]4C[C@H](O)CC[C@]4(C)[C@H]3CC[C@]12C)c1ccc(Cl)s1 [Compound I-173]	32 µM (≈ 17.6 µg/mL)	16 µM (≈ 8.79 µg/mL)	16 µM (≈ 8.79 µg/mL)
CC[C@@H](NC(=O)C[C@@H](C)[C@H]1CC[C@H]2[C@@H]3C(=O)C[C@@H]4C[C@H](O)CC[C@]4(C)[C@H]3CC[C@]12C)c1ccc(Cl)s1 [Compound I-149]	2 µM (≈ 1.07 µg/mL)	2 µM (≈ 1.07 µg/mL)	2 µM (≈ 1.07 µg/mL)
CC(C)[C@@H](NC(=O)C[C@@H](C)[C@H]1CC[C@H]2[C@@H]3[C@H](OP(=O)(O)O)C[C@@H]4CC(=O)CC[C@]4(C)[C@H]3CC[C@]12C)c1ccc(Cl)s1 [Compound I-193]	64 µM (≈ 40.2 µg/mL)	64 µM (≈ 40.2 µg/mL)	64 µM (≈ 40.2 µg/mL)
CO[C@@H]1CC[C@@]2(C)[C@H](CC(=O)[C@@H]3[C@@H]2CC[C@]2(C)[C@@H]([C@H](C)CC(=O)N[C@@H](c4ccc(Cl)s4)C(C)C)CC[C@@H]32)C1 [Compound I-168]	128 µM (≈ 72 µg/mL)	128 µM (≈ 72 µg/mL)	128 µM (≈ 72 µg/mL)
CC(NC(=O)C[C@@H](C)[C@H]1CC[C@H]2[C@@H]3C(=O)C[C@@H]4CC(=O)CC[C@]4(C)[C@H]3CC[C@]12C)c1cccs1 (stereo partly drawn) [Compound I-27]	2 µM (≈ 0.967 µg/mL)	2 µM (≈ 0.967 µg/mL)	2 µM (≈ 0.967 µg/mL)
CC(C)[C@H](NC(=O)C[C@@H](C)[C@H]1CC[C@H]2[C@@H]3[C@H](O)C[C@@H]4CC(=O)CC[C@]4(C)[C@H]3CC[C@]12C)c1ccc(S(=O)(=O)O)s1 [Compound I-102]	> 256 µM	> 256 µM	> 256 µM
CC(C)C(NC(=O)C[C@@H](C)[C@H]1CC[C@H]2[C@@H]3C(=O)C[C@@H]4CC(=O)CC[C@]4(C)[C@H]3CC[C@]12C)c1ccc(Br)s1 (stereo partly drawn) [Compound I-78]	0.5 µM (≈ 0.295 µg/mL)	1 µM (≈ 0.591 µg/mL)	0.5 µM (≈ 0.295 µg/mL)
CC[C@@H](NC(=O)C[C@@H](C)[C@H]1CC[C@H]2[C@@H]3[C@H](O)C[C@@H]4C[C@H](OC)CC[C@]4(C)[C@H]3CC[C@]12C)c1ccc(Cl)s1 [Compound I-169]	256 µM (≈ 141 µg/mL)	256 µM (≈ 141 µg/mL)	128 µM (≈ 70.4 µg/mL)
CC(=O)O[C@@H]1C[C@@H]2CC(=O)CC[C@]2(C)[C@H]2CC[C@]3(C)[C@@H]([C@H](C)CC(=O)N[C@@H](c4ccc(Cl)s4)C(C)C)CC[C@H]3[C@H]12 [Compound I-177]	0.5 µM (≈ 0.295 µg/mL)	1 µM (≈ 0.59 µg/mL)	0.5 µM (≈ 0.295 µg/mL)
CCC(NC(=O)C[C@@H](C)[C@H]1CC[C@H]2[C@@H]3[C@H](O)C[C@@H]4CC(=O)CC[C@]4(C)[C@H]3CC[C@]12C)c1ccc(Br)s1 (stereo partly drawn) [Compound I-89]	0.5 µM (≈ 0.289 µg/mL)	0.5 µM (≈ 0.289 µg/mL)	0.5 µM (≈ 0.289 µg/mL)
C[C@H](CC(=O)NCc1ccccn1)[C@H]1CC[C@H]2[C@@H]3C(=O)C[C@@H]4CC(=O)CC[C@]4(C)[C@H]3CC[C@]12C [Compound I-65]	128 µM (≈ 59.5 µg/mL)	128 µM (≈ 59.5 µg/mL)	128 µM (≈ 59.5 µg/mL)
CC[C@@H](NC(=O)C[C@@H](C)[C@H]1CC[C@H]2[C@@H]3C(=O)CC4=CC(=O)CC[C@]4(C)[C@H]3CC[C@]12C)c1ccc(Br)s1 [Compound I-151]	0.5 µM (≈ 0.287 µg/mL)	1 µM (≈ 0.575 µg/mL)	0.5 µM (≈ 0.287 µg/mL)
CC[C@@H](NC(=O)C[C@@H](C)[C@H]1CC[C@H]2[C@@H]3[C@H](OC(=O)CCCCCCC(=O)O)C[C@@H]4CC(=O)CC[C@]4(C)[C@H]3CC[C@]12C)c1ccc(Br)s1 [Compound I-188]	0.25 µM (≈ 0.184 µg/mL)	0.25 µM (≈ 0.184 µg/mL)	0.25 µM (≈ 0.184 µg/mL)
CC(C)[C@H](NC(=O)C[C@@H](C)[C@H]1CC[C@H]2[C@@H]3[C@H](OS(=O)(=O)O)C[C@@H]4CC(=O)CC[C@]4(C)[C@H]3CC[C@]12C)c1ccc(Br)s1 [Compound I-114]	> 256 µM	> 256 µM	> 256 µM
CC[C@@H](NC(=O)C[C@@H](C)[C@H]1CC[C@H]2[C@@H]3[C@@H](O)C[C@@H]4C[C@H](O)CC[C@]4(C)[C@H]3CC[C@]12C)c1ccc(Cl)s1 [Compound I-141]	32 µM (≈ 17.2 µg/mL)	32 µM (≈ 17.2 µg/mL)	32 µM (≈ 17.2 µg/mL)
CC(=O)O[C@@H]1CC2=CC(=O)CC[C@]2(C)[C@H]2CC[C@]3(C)[C@@H]([C@H](C)CC(=O)N[C@@H](c4ccc(Br)s4)C(C)C)CC[C@H]3[C@H]12 [I-156 -1]	0.5 µM (≈ 0.316 µg/mL)	0.5 µM (≈ 0.316 µg/mL)	0.5 µM (≈ 0.316 µg/mL)
CC(C)C(NC(=O)C[C@@H](C)[C@H]1CC[C@H]2[C@@H]3[C@H](O)C[C@@H]4CC(=O)CC[C@]4(C)[C@H]3CC[C@]12C)c1ccc(Br)s1 (stereo partly drawn) [Compound I-98]	0.5 µM (≈ 0.296 µg/mL)	0.5 µM (≈ 0.296 µg/mL)	0.5 µM (≈ 0.296 µg/mL)
CC(C)C(NC(=O)C[C@@H](C)[C@H]1CC[C@H]2[C@@H]3[C@H](O)C[C@@H]4CC(=O)CC[C@]4(C)[C@H]3CC[C@]12C)c1ccc(Cl)s1 (stereo partly drawn) [Compound I-95]	0.25 µM (≈ 0.137 µg/mL)	0.25 µM (≈ 0.137 µg/mL)	0.25 µM (≈ 0.137 µg/mL)
CC[C@@H](NC(=O)C[C@@H](C)[C@H]1CC[C@H]2[C@@H]3[C@H](O)C[C@@H]4C[C@@H](O)CC[C@]4(C)[C@H]3CC[C@]12C)c1ccc(Br)s1 [Compound I-143]	8 µM (≈ 4.65 µg/mL)	4 µM (≈ 2.32 µg/mL)	4 µM (≈ 2.32 µg/mL)
CC[C@@H](NC(=O)C[C@@H](C)[C@H]1CC[C@H]2[C@@H]3[C@H](OC(C)=O)CC4=CC(=O)CC[C@]4(C)[C@H]3CC[C@]12C)c1ccc(Br)s1 [I-155 -1]	0.25 µM (≈ 0.155 µg/mL)	0.25 µM (≈ 0.155 µg/mL)	0.25 µM (≈ 0.155 µg/mL)
CC[C@H](NC(=O)C[C@@H](C)[C@H]1CC[C@H]2[C@@H]3C(=O)C[C@@H]4CC(=O)CC[C@]4(C)[C@H]3CC[C@]12C)c1ccc(Cl)s1 [Compound I-69]	8 µM (≈ 4.26 µg/mL)	16 µM (≈ 8.52 µg/mL)	8 µM (≈ 4.26 µg/mL)
CC(C)C(NC(=O)C[C@@H](C)[C@H]1CC[C@H]2[C@@H]3C(=O)C[C@@H]4CC(=O)CC[C@]4(C)[C@H]3CC[C@]12C)c1ccc(S(=O)(=O)O)s1 (stereo partly drawn) [Compound I-81]	32 µM (≈ 18.9 µg/mL)	32 µM (≈ 18.9 µg/mL)	32 µM (≈ 18.9 µg/mL)
CC[C@@H](NC(=O)C[C@@H](C)[C@H]1CC[C@H]2[C@@H]3[C@H](N)C[C@@H]4C[C@H](O)CC[C@]4(C)[C@H]3CC[C@]12C)c1ccc(Cl)s1 [Compound I-171]	32 µM (≈ 17.1 µg/mL)	32 µM (≈ 17.1 µg/mL)	32 µM (≈ 17.1 µg/mL)
C[C@H](CC(=O)NCc1ccco1)[C@H]1CC[C@H]2[C@@H]3[C@H](O)C[C@@H]4C[C@H](O)CC[C@]4(C)[C@H]3CC[C@]12C [Compound I-2]	16 µM (≈ 7.32 µg/mL)	8 µM (≈ 3.66 µg/mL)	8 µM (≈ 3.66 µg/mL)
CC(C)[C@@H](NC(=O)C[C@@H](C)[C@H]1CC[C@H]2[C@@H]3[C@H](O)C[C@@H]4C[C@H](O)CC[C@]4(C)[C@H]3C[C@H](O)[C@]12C)c1ccc(Cl)s1 [Compound I-146]	16 µM (≈ 9.06 µg/mL)	16 µM (≈ 9.06 µg/mL)	16 µM (≈ 9.06 µg/mL)
C[C@H](CC(=O)NCc1cccs1)[C@H]1CC[C@H]2[C@@H]3C(=O)C[C@@H]4C[C@H](O)CC[C@]4(C)[C@H]3C[C@H](O)[C@]12C [Compound I-20]	64 µM (≈ 31.2 µg/mL)	32 µM (≈ 15.6 µg/mL)	32 µM (≈ 15.6 µg/mL)
CCC(NC(=O)C[C@@H](C)[C@H]1CC[C@H]2[C@@H]3[C@H](OS(=O)(=O)O)C[C@@H]4CC(=O)CC[C@]4(C)[C@H]3CC[C@]12C)c1ccc(Cl)s1 (stereo partly drawn) [Compound I-104]	1 µM (≈ 0.614 µg/mL)	1 µM (≈ 0.614 µg/mL)	1 µM (≈ 0.614 µg/mL)
